Test results reported in paper PMC4192315, “An Efficient Preparation of Mulberroside A from the Branch Bark of Mulberry and Its Effect on the Inhibition of Tyrosinase Activity” (PLoS ONE, 2014).
“Also recorded” adds a separate entry of the source. Read-outs that look alike come from different tables or passages of the source.

How the values were obtained:
[1] = design: method as in PMID 8951165; conditions: rats, cited from earlier work
mushroom tyrosinase [2] = conditions: cited from earlier work
[3] = biological target: monophenolase activity of the mushroom tyrosinase (Agaricus bisporus, UniProt C7FF04); test: Inhibition of monophenolase activity of mushroom tyrosinase (L-tyrosine as substrate, absorbance at 475 nm); assay type: biochemical; conditions: for Inhibition type: Lineweaver-Burk plots; for Inhibition mechanism: plot of V against [E]
Protocol: The measurement of the sample's inhibitory activity on monophenolase activity was based on 0.5 mmol/L L-tyrosine as the substrate. The total reaction volume was 3.0 mL, which included 2.8 mL substrate solution, 100 µL different concentrations of the sample solutions and 100 µL mushroom tyrosinase solution. The substrate and enzyme solution were dissolved in 50 mmol/L NaH2PO4-Na2HPO4 temporary buffer solution (pH 6.8), with a substrate concentration of 0.5 mmol/L and with an enzyme solution concentration of 1.0 mg/mL. The samples were dissolved in DMSO. First, 100 µL sample solution was added, then 2.8 mL substrate solution, which was pre-incubated at 30°C, was added, and last, 100 µL enzyme solution was added and immediately mixed. The curve was drawn using real-time tracking of the optical density change over time at 475 nm. The measuring instrument was a Hitachi U3000 UV-visible spectrophotometer. The enzyme activity was obtained from the slope of the line. The sample concentration-response curve was plotted as the inhibition rate of samples to the enzyme against the concentrations of effectors.
(§1) The concentration of the substrate was fixed in 3.0 mL of 50 mmol/L NaH2PO4-Na2HPO4 temporary buffer solution (pH 6.8); however, the amount of enzyme was changed to determine the effects of different concentrations of sample on the reaction of mushroom tyrosinase catalysing L-tyrosine or L-DOPA as substrates. Mapping the reaction rate in terms of the amount of enzyme determined whether the inhibition was a reversible reaction.
(§2) And the inhibition type and inhibition constant were determined as follows. The concentration of the enzyme solution was fixed in 3.0 mL of 50 mmol/L NaH2PO4-Na2HPO4 temporary buffer solution (pH 6.8); however, the amount of substrate (L-tyrosine or L-DOPA) was changed to determine the effects of different concentrations of effectors on the reaction of mushroom tyrosinase catalysing the substrate. Using the Lineweaver-Burk method, the curve was plotted as the reciprocal of the reaction rate 1/V against the reciprocal of the substrate 1/[S] to determine the type of inhibition. If the lines intersected on the y-axis, then competitive inhibition was indicated. If the lines intersected on the x-axis, then noncompetitive inhibition was indicated. If the lines intersected in the […] quadrant, then this inhibition was mixed type 1 or 2. If the lines were parallel, then anticompetitive inhibition was indicated. The inhibition constant of the effectors on tyrosinase (KI) and the inhibition constants of the enzyme-substrate complex (KIS) were obtained by a secondary plot of the concentration of the effectors against the slope of the line and the y-axis intercept, respectively.

intestinal bacteria = conditions: cited from earlier work
[4] = cited from earlier work
mushroom tyrosinase [5] = test: Effect on the enzyme-catalysed process (N-acetyl-L-tyrosine as substrate, HPLC); assay type: biochemical; conditions: 175.9 µmol/L sample, 0-60 min
Protocol: The effect of the enzyme-catalysed process was determined using a previously described method, with slight modifications. In total, 100 mg N-acetyl-L-tyrosine was dissolved using NaH2PO4-Na2HPO4 temporary buffer solution (pH 6.8), and the volume was set to 100 mL. In total, 0.25 mg/mL enzyme solution and a certain concentration of the sample solution were prepared. All the solutions were filtered using a syringe filter with an aperture of 0.22 µm. The components of the reaction system were as follows: 80 µL N-acetyl-L-tyrosine was mixed with 10 µL sample solution and incubated at 30°C for 5 min, and then 10 µL enzyme solution was added. During the period from 0–60 min, 20 µL mixed solution was injected into the HPLC system every 10 min to detect changes in N-acetyl-L-tyrosine. The HPLC conditions were as follows: a Shimadzu HPLC pump equipped with a Shimadzu 9082652 VP-ODS column (250 mm×4.6 mm). The detection wavelength was 275 nm. The injection volume was 10 µL, and the flow-rate was 1.0 mL/min. The mobile phases were A (water) and B (acetonitrile), which were prepared according to the following linear procedure: 0–8 min, A/B = 85:15 (v/v). All analyses were performed at room temperature.

tyrosinase = biological target: tyrosinase; design: method as in PMID 22878208; conditions: read-out: IC50 of tyrosinase inhibitory activity; cited from earlier work
[6] = Effect on the non-enzyme-catalysed process (redox reaction of L-DOPA and p-benzoquinone, HPLC); conditions: HPLC at 245 nm and 280 nm
Protocol: The effect of the non-enzyme-catalysed process was determined by a previously described method, with slight modifications. The HPLC conditions were as follows: a Shimadzu HPLC pump equipped with a Shimadzu VP-ODS column (250 mm×4.6 mm). The detection wavelengths were 245 nm and 280 nm. The injection volume was 20 µL, and the flow-rate was 1.0 mL/min. The mobile phases were A (0.4% aqueous acetic acid) and B (acetonitrile), which were prepared according to the following linear procedure: 0–10 min, A/B = 90:10 (v/v).

mushroom tyrosinase [7] = test: Effect on the total process of dopachrome synthesis (consecutive UV-Vis spectra, oxidation of L-tyrosine by tyrosinase); assay type: biochemical; conditions: 2.0 µmol/L sample, 0-12 min
Protocol: The effect of tyrosinase (Worthington, USA) on the catalysis of L-tyrosine to dopachrome was determined using the method described by Hiroki, with slight modifications. The total reaction volume was 3 mL. […] The change in the absorption spectrum was determined using a Hitachi U3000 UV-visible spectrophotometer at 30°C isothermal conditions. The scanning wavelength ranged from 250 nm to 600 nm. The scanning frequency was 2 min, and the scanning time was 12 min. Thus, the changes in the absorption spectrum over time were obtained.

[8] = biological target: diphenolase activity of the mushroom tyrosinase (Agaricus bisporus, UniProt C7FF04); test: Inhibition of diphenolase activity of mushroom tyrosinase (L-DOPA as substrate, absorbance at 475 nm); assay type: biochemical; conditions: for Inhibition type: Lineweaver-Burk plots; for Inhibition mechanism: plot of V against [E]
Protocol: The measurement of the sample's inhibitory activity on diphenolase activity was based on 0.5 mmol/L L-DOPA as the substrate. The experimental procedure and calculations were identical to those above-mentioned procedures and calculations.
as §1, §2

mushroom tyrosinase [9] = test: Mushroom tyrosinase inhibition (literature values); assay type: biochemical; conditions: monophenolase
[10] = MA isolated from ethanol extract of roots of Morus alba, read-out: Tyrosinase inhibitory activity

Chain of diphenolase activity of the mushroom tyrosinase (C7FF04 1-392): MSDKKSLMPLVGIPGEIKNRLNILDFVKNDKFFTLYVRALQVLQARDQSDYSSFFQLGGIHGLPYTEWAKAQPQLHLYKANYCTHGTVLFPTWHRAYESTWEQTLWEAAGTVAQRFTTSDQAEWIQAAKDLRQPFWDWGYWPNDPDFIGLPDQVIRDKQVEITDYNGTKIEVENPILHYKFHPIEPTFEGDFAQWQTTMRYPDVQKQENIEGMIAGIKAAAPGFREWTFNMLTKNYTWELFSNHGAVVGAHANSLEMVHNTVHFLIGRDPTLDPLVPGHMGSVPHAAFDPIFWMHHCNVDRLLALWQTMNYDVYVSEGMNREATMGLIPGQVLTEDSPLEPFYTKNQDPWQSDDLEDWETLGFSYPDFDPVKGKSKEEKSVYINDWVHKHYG
Chain of monophenolase activity of the mushroom tyrosinase (C7FF04 1-392): as above

OC[C@H]1O[C@@H](Oc2cc(O)cc(/C=C/c3ccc(O[C@@H]4O[C@H](CO)[C@@H](O)[C@H](O)[C@H]4O)cc3O)c2)[C@H](O)[C@@H](O)[C@@H]1O [MA, oxyresveratrol-4-O-β-D-glucopyranosyl-3′-O-β-D-glucopyranoside]
Bioavailability ([1]; oral administration of mulberry root acetone extract): approximately 1% | Absorption rate ([1]; oral, most MA transformed to OR and transferred into circulating blood, estimated): 50% | Inhibition type (mushroom tyrosinase [2]; L-tyrosine and L-DOPA as substrates): competitive | IC50 (mushroom tyrosinase [2]; [10]): 53.6 µM | Inhibition type [3]: mixed type 1 | KIS (inhibition constant of the enzyme-substrate complex) [3]: 0.177 µmol/L | Inhibition mechanism [3]: reversible | Metabolism by intestinal bacteria (intestinal bacteria): rapidly deglucosylated and transformed into OR | Permeability [4]: poor permeability | Change in content of N-acetyl-L-tyrosine (mushroom tyrosinase [5]): did not change | IC50 (tyrosinase): 42.1 µM | Effect on redox reaction of L-DOPA and p-benzoquinone (non-enzymatic process) [6]: not influenced; also recorded: no effect | Effect on formation of dopachrome (mushroom tyrosinase [7]): inhibited the formation of dopachrome | Inhibition type [8]: competitive | Inhibition mechanism [8]: reversible

Oc1cc(O)cc(/C=C/c2ccc(O)cc2O)c1 [OR, oxyresveratrol]
Inhibition mechanism (mushroom tyrosinase [2]; L-tyrosine as the substrate): reversibly inhibited | Inhibition type (mushroom tyrosinase [2]; L-tyrosine as the substrate): non-competitive | IC50 (mushroom tyrosinase [2]; [10]): 0.49 µM | IC50 (mushroom tyrosinase [2]; depending on the assay conditions, read-out: IC50): 0.46 to 1.1 µM | Inhibition type [3]: mixed type 1 | KIS (inhibition constant of the enzyme-substrate complex) [3]: 0.662 µmol/L | Inhibition mechanism [3]: reversible | Change in content of N-acetyl-L-tyrosine (mushroom tyrosinase [5]): did not change | Effect on redox reaction of L-DOPA and p-benzoquinone (non-enzymatic process) [6]: not influenced | Effect on formation of dopachrome (mushroom tyrosinase [7]): inhibited the formation of dopachrome | Inhibition type [8]: Non-competitive | KIS (inhibition constant of the enzyme-substrate complex) ([8]; enzyme-substrate complex): 2.95 µmol/L | Inhibition mechanism [8]: reversible | Difference in IC50 between literature and this paper (mushroom tyrosinase [9]; compared with ref 8): 8 fold | Difference in IC50 between literature and this paper (mushroom tyrosinase [9]; printed as lower than our experiment, compared with ref 6): approximately 4 fold
